What all share (test): Kinase profiling
What all share (assay type): biochemical

In one assay the target is T1, DAPK1 (Homo sapiens, UniProt P53355).
T1 construct: purchased ProQinase (Freiburg, Germany)
The protocol:
(§1) The analysis was performed by ProQinase (Freiburg, Germany).

In a further assay the target is T2, RIPK5 (Homo sapiens, UniProt Q6XUX3).
T2 construct: purchased ProQinase (Freiburg, Germany)
T2 sequence (Q6XUX3 1-929): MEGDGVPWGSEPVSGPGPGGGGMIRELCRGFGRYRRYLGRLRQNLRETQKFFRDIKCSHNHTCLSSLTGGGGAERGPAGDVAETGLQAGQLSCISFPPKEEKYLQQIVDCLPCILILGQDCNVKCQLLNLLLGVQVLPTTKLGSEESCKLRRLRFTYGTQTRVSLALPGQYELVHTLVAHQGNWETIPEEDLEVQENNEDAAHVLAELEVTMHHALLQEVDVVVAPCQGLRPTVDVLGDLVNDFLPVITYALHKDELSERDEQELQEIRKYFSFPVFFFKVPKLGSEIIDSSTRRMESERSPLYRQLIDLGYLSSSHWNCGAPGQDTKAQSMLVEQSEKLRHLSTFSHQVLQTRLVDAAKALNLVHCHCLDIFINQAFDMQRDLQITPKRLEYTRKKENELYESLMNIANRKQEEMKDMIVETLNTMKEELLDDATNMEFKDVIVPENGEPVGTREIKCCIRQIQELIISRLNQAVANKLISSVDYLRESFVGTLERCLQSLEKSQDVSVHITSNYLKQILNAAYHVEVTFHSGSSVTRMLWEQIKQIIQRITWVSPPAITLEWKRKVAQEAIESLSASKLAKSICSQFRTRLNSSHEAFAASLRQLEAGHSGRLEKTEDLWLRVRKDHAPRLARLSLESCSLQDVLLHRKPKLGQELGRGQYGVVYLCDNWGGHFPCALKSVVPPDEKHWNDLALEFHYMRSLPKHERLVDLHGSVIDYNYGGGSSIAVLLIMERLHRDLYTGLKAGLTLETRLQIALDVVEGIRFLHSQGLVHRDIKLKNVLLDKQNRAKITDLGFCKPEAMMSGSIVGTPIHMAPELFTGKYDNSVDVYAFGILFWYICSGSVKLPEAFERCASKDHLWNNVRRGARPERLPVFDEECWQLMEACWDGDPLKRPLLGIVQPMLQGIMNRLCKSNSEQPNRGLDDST
The procedure:
as §1

In another assay the target is T3, PHKG2 (Homo sapiens, UniProt P15735).
T3 construct: purchased ProQinase (Freiburg, Germany)
T3 sequence (P15735 1-406): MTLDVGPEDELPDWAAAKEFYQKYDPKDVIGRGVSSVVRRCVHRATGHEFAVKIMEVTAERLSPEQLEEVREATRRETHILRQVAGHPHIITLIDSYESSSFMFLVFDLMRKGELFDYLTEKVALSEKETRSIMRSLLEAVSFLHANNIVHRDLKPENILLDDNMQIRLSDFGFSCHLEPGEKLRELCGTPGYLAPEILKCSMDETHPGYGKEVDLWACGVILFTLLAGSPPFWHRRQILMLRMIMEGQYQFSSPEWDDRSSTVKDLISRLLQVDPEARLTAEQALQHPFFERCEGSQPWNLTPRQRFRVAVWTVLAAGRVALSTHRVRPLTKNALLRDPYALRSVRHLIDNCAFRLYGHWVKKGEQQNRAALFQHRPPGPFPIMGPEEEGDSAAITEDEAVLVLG
The procedure: as §1

The next assay has as its target T4, STK23 (Homo sapiens, UniProt Q9UPE1).
T4 construct: purchased ProQinase (Freiburg, Germany)
The protocol: as §1

Another assay deals with T5, TNK1 (Homo sapiens, UniProt Q13470).
T5 construct: purchased ProQinase (Freiburg, Germany)
T5 sequence (Q13470 1-666): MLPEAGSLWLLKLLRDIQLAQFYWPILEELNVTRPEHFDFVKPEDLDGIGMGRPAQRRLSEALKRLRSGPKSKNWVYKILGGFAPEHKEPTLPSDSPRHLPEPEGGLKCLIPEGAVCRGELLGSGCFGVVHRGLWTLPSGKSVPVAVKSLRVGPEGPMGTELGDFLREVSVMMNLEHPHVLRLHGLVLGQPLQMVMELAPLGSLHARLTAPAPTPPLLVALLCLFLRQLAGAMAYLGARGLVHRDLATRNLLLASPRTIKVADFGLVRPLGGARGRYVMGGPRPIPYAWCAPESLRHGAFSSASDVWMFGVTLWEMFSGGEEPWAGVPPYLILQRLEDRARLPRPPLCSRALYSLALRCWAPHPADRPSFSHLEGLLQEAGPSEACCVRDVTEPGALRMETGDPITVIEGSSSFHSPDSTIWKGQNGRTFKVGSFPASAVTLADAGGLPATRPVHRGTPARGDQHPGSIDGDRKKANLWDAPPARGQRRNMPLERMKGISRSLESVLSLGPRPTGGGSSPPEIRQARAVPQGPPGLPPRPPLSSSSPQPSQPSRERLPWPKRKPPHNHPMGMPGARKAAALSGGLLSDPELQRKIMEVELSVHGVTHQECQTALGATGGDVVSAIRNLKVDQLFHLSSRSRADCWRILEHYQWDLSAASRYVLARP
The procedure: as §1

In a further assay the target is T6, GRK4 (Homo sapiens, UniProt P32298).
T6 construct: purchased ProQinase (Freiburg, Germany)
T6 sequence (P32298 whole entry): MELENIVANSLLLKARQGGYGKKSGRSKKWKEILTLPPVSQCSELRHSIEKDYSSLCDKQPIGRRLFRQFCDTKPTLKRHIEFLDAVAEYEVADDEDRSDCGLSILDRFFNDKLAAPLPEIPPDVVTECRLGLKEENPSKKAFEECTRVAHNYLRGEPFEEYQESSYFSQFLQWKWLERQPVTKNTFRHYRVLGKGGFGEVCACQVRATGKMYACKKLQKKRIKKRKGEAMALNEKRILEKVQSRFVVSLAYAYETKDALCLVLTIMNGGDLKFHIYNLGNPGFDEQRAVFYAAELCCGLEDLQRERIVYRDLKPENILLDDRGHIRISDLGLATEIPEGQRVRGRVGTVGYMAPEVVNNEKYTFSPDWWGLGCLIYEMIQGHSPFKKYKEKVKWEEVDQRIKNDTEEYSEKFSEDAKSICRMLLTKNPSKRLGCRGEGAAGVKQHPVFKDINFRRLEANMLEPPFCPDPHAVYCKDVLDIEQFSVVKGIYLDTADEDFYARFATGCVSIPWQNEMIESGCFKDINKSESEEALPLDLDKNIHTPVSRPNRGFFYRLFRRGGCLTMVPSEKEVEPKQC
The protocol:
as §1

This passage reports Residual activity results from article PMC9030254, “Target Hopping from Protein Kinases to PXR: Identification of Small-Molecule Protein Kinase Inhibitors as Selective Modulators of Pregnane X Receptor from TüKIC Library” (Cells, 2022).

T1 sequence (P53355 whole entry): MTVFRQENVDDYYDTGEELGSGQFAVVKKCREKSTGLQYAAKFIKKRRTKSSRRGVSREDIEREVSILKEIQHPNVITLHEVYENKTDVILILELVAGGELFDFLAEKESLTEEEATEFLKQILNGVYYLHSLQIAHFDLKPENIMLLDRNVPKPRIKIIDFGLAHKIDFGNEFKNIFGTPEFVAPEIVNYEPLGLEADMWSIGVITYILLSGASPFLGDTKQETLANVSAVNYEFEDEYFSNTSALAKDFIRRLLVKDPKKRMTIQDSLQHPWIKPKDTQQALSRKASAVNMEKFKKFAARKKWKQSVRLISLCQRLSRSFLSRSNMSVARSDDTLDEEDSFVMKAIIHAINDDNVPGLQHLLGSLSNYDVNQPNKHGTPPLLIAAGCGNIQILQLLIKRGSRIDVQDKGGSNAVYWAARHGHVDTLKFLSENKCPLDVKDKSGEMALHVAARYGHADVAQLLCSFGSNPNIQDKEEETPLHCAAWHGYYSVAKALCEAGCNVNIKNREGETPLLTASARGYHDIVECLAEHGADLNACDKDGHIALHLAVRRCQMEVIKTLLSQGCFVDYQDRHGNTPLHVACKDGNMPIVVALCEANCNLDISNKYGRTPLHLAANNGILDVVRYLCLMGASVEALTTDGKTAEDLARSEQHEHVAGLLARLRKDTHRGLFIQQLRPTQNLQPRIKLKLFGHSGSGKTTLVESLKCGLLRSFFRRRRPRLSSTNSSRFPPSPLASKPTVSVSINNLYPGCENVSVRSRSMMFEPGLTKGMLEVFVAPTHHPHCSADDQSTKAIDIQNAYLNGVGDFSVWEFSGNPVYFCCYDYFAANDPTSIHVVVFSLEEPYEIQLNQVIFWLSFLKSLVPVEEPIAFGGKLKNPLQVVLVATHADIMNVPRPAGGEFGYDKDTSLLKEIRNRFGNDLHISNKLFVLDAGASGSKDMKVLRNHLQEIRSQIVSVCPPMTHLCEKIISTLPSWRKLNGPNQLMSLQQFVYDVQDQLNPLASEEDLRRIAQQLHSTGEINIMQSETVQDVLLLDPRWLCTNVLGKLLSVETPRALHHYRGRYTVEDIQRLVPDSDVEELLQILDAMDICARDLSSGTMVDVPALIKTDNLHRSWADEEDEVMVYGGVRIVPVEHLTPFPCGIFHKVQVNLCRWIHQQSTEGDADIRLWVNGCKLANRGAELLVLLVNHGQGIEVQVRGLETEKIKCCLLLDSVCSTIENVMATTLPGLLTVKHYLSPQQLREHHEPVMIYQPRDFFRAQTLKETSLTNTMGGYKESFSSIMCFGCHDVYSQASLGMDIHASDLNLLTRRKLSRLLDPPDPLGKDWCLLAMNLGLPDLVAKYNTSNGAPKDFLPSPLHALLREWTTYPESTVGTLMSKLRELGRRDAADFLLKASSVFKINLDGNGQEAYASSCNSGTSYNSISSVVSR
T4 sequence (Q9UPE1 whole entry): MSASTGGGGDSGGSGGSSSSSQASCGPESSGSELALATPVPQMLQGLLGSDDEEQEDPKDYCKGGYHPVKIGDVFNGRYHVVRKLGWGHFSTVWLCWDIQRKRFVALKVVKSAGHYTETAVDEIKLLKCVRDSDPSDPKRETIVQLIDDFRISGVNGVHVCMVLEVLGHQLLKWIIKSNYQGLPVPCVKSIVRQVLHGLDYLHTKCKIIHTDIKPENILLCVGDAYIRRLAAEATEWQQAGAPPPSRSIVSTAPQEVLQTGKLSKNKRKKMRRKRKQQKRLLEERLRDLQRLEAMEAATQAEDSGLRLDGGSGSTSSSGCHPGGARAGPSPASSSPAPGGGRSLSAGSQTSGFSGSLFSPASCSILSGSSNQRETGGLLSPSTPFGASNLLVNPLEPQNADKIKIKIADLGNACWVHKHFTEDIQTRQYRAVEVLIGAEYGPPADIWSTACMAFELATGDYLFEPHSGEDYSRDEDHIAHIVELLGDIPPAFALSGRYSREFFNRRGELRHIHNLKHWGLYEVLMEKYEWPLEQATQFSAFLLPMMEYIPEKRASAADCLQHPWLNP

Turning to `O=C(Cc1ccccc1)Nc1ccc(F)c(Nc2ccc3c(c2)CCCCC3=O)c1` [Compound 100], the Residual activity on DAPK1 (1.0E-05 M) is 110 % of control; on DAPK1 (1.0E-06 M), 127 % of control; on RIPK5 (1.0E-05 M) it was 99 % of control; at RIPK5 (1.0E-06 M) it was 100 % of control; at PHKG2 (1.0E-05 M), 93 % of control; at PHKG2 (1.0E-06 M), 96 % of control. The Residual activity at STK23 (1.0E-05 M) is on record as 79 % of control; on STK23 (1.0E-06 M), 89 % of control; on TNK1 (1.0E-05 M), 72 % of control; on TNK1 (1.0E-06 M), 101 % of control; at GRK4 (1.0E-05 M) it was 86 % of control; on GRK4 (1.0E-06 M), 116 % of control.
As for `O=C(Nc1ccc(F)c(Nc2ccc3c(c2)CCCCC3=O)c1)c1cccc(F)c1` [Compound 109], the Residual activity is 102 % of control at DAPK1 (1.0E-05 M); 109 % of control on DAPK1 (1.0E-06 M); 100 % of control at RIPK5 (1.0E-05 M); 101 % of control on RIPK5 (1.0E-06 M); 95 % of control on PHKG2 (1.0E-05 M); 102 % of control on PHKG2 (1.0E-06 M). Besides, the Residual activity at STK23 (1.0E-05 M) is reported as 76 % of control; on STK23 (1.0E-06 M) it was 78 % of control; on TNK1 (1.0E-05 M), 85 % of control; at TNK1 (1.0E-06 M), 89 % of control; at GRK4 (1.0E-05 M), 130 % of control; on GRK4 (1.0E-06 M), 103 % of control.
